Laboratory results from patent US20240409566A1, “DELIVERY OF THERAPEUTIC ALKALOID COMPOUNDS” (priority 2022, published 2024).

How the values were obtained:
[1] = Plasma stability assay, rat plasma; format: in vitro ADME; conditions: rat, 10 µM
Experimental: (§1) Compound stability in rat and human plasma was measured by incubating compound with rat or human plasma at 37° C. in a microwell plate for sequential time points, monitoring pro-drug disappearance and metabolite appearance (mesembranol or 6-epi-mesembranol). A 2 mM stock solution of test compounds were prepared by dissolving appropriate amount of compounds in DMSO. The 2 mM stock was further diluted 200-folds in rat or human plasma to attain a final concentration of 10 μM respectively (0.5% DMSO). 50 μL aliquots of positive controls and test compounds spiked into rat or human plasma (n=2) were added to a pre-warmed plate (37° C.) and shaken at 50 rpm. At each respective time point, the reaction was stopped by adding 500 μL of acetonitrile containing internal standards (100 nM aprozolam, 200 nM caffeine, 100 nM tolbutamide). All samples were vortexed for 10 minutes, followed by centrifugation at 3,220 g for 30 minutes to precipitate proteins. 100 μL of the supernatant is transferred to a new plate. The supernatant will be diluted with ultrapure water according to the LC-MS signal response and peak shape. The concentrations of test compounds and positive control were quantified in the test samples using LC-MS/MS. Results reported as % of prodrug compound remaining at time point, and % of metabolite (mesembranol or 6-epi-mesembranol,) accumulated at time point.

[2] = Plasma stability assay, human plasma; format: in vitro ADME; conditions: human, 10 µM
Experimental: as §1

SMILES | Prodrug (%) ([1]; 0 min) | Prodrug (%) ([1]; 10 min) | Prodrug (%) ([1]; 30 min) | Prodrug (%) ([1]; 60 min) | Prodrug (%) ([1]; 120 min) | Prodrug (%) ([1]; 240 min) | Prodrug (%) ([2]; 0 min) | Prodrug (%) ([2]; 10 min) | Prodrug (%) ([2]; 30 min) | Prodrug (%) ([2]; 60 min) | Prodrug (%) ([2]; 120 min) | Prodrug (%) ([2]; 240 min)
CCCCC(=O)OC1CC[C@@]2(c3ccc(OC)c(OC)c3)CCN(C)[C@H]2C1 (stereo in doubt) [Compound 205, (3aS,6S,7aS)-3a-(3,4-dimethoxyphenyl)-1-methyloctahydro-1H-indol-6-yl pentanoate] | 100.0 | 0.6 | 0.1 | 0.1 | 0.1 | 0.0 | 100.0 | 96.7 | 90.7 | 84.3 | 80.3 | 67.9
CCCC(=O)OC1CC[C@@]2(c3ccc(OC)c(OC)c3)CCN(C)[C@H]2C1 (stereo in doubt) [Compound 206, (3aS,6S,7aS)-3a-(3,4-dimethoxyphenyl)-1-methyloctahydro-1H-indol-6-yl butyrate] | 100.0 | 0.8 | 0.1 | 0.0 | 0.0 | 0.0 | 100.0 | >99.0 | 92.7 | 83.8 | 79.1 | 68.0
COc1ccc([C@@]23CC[C@H](OC(=O)N(C)C)C[C@@H]2N(C)CC3)cc1OC [Compound 101, (3aS,6S,7aS)-3a-(3,4-dimethoxyphenyl)-1-methyloctahydro-1H-indol-6-yl dimethylcarbamate] | 100.0 | 88.7 | 95.0 | 98.2 | 99.4 | 92.2 | 100.00 | >99.0 | >99.0 | >99.0 | >99.0 | >99.0
COc1ccc([C@@]23CC[C@H](OC(=O)C(C)(C)C)C[C@@H]2N(C)CC3)cc1OC [Compound 102, (3aS,6S,7aS)-3a-(3,4-dimethoxyphenyl)-1-methyloctahydro-1H-indol-6-yl pivalate] | 100.0 | >99.0 | 77.8 | 68.1 | 42.3 | 15.4 | 100.00 | 97.52 | 95.20 | 92.88 | >99.0 | 94.80
COc1ccc([C@@]23CC[C@H](OC(=O)C(C)C)C[C@@H]2N(C)CC3)cc1OC [Compound 103, (3aS,6S,7aS)-3a-(3,4-dimethoxyphenyl)-1-methyloctahydro-1H-indol-6-yl isobutyrate] | 100.0 | 56.1 | 12.2 | 0.6 | 0.1 | 0.0 | 100.00 | >99.0 | >99.0 | 97.28 | 97.48 | 87.17
